Data published in patent publication US20240066038A1, “WNT MODULATORS TO TREAT CENTRAL NERVOUS SYSTEM INJURIES” (MAYO FOUNDATION FOR MEDICAL EDUCATION AND RESEARCH, priority 2021, published 2024).

Experiments:
[1] = tested on: Wnt/β-catenin signaling; assay: Axin2 expression by qPCR in hCMEC/D3 cerebral microvascular endothelial cells; type: cell-based, human; settings: serum free medium, 24 h
Procedure: The expression level of Axin2, a specific target of Wnt/β-catenin signaling, was measured by qPCR. The results represented in the histograms are shown as the means±SE and are the average of 3 independent experiments. One-way ANOVA with post hoc Tukey-Kramer honest significant difference test. **, p<0.01.
Studies in past ten years have established that the Wnt/β-catenin pathway is a key pathway required not only for BBB formation but also for BBB integrity and function. Moreover, BBB breakdown following middle cerebral artery occlusion can be potently rescued in mice in which Wnt/β-catenin is specifically activated in brain endothelial cells. On the other hand, dysregulation of Wnt/β-catenin may limit remyelination of white matter lesions (WMLs) and render the BBB leaky.

[2] = tested on: Wnt/β-catenin signaling; assay: Total cellular β-catenin level by Western blotting in neuronal N2a cells; type: cell-based; settings: 24 h, Western blotting normalized to actin
Procedure: (A) Compound 1039 activates Wnt/β-catenin signaling in HEK293 cells. HEK293 cells were transfected with Super8XTOPFlash and 8-galactosidase vectors along with Wnt3A or control vector. After 24 h incubation, cells were treated with 1039 at the indicated concentrations for 24 h. The luciferase activity was then measured and normalized to the activity of the 8-galactosidase. All the values are the average of triplicate determinations with the SD values indicated by error bars. This experiment is a representative of 3 such experiments performed with similar data. (B, C) N2a cells were treated with Compound 1039 at the indicated concentrations for 24 h. (B) The levels of total cellular β-catenin were examined by Western blotting. (C) The intensity of the β-catenin bands was quantified and normalized to the corresponding signal for actin. The results represented in the histograms are shown as the mean±SD and are the average of 3 independent experiments.
Wnt/β-catenin signaling plays a critical role in neuronal survival, neurogenesis, synaptogenesis, neuronal plasticity and synaptic plasticity.

Nc1ccccc1NC(=O)c1ccc(C(=O)NCC2CCN2C2CCCC2)cn1 (centres unmarked) [Compound 1015]
activation of Wnt/β-catenin signaling (Axin2 expression, qPCR) [1]: able to activate Wnt/β-catenin signaling

Nc1ccccc1NC(=O)c1ccc(C(=O)NCC2CCCN2CCc2ccccc2)cn1 (centres unmarked) [Compound 1039]
β-catenin level [2]: enhances β-catenin level in a dose dependent manner
